Drawing on patent US20080146599A1, “Pyrimidine Compounds Having Tie-2 (Tek) Inhibitory Activity” (ASTRAZENECA AB, priority 2005, published 2008), this text covers IC50 for three compounds.

For experiment [1], the target named is T1, Tie2 receptor tyrosine kinase (Homo sapiens, UniProt Q02763).
T1 construct: consist of only the intracellular portion C-terminal portion of the respective receptor, within which is found the kinase domain; made in house; host or cells: baculovirus/Sf21 insect cells (or alternative equivalent); cleared lysate used, not purified protein
T1 sequence (Q02763 770-1124 limits assumed): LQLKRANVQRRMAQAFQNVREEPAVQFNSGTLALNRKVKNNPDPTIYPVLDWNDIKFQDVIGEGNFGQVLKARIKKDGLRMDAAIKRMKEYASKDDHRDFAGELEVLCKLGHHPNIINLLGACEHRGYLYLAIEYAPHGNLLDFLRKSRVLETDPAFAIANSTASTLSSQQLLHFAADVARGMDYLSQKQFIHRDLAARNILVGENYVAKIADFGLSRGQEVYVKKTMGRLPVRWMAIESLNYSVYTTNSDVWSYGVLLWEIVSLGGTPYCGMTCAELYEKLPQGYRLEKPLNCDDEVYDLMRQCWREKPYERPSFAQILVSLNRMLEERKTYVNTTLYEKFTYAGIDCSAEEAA
In words: In vitro receptor tyrosine kinase inhibition assay (ELISA based microtitre plate assay). The experiment is classed as biochemical. As to conditions: recombinant human Tie2 kinase domain lysate, ATP 5 micromolar or Km; read-out: IC50 (μM) Test (a): Inhibition of Tie2 receptor tyrosine kinase in vitro. The protocol:
Constitutive kinase activity of these recombinant proteins was determined by their ability to phosphorylate a synthetic peptide (made up of a random co-polymer of Glutamic Acid, Alanine and Tyrosine in the ratio of 6:3:1). […] Plates were washed in 50 mM HEPES pH 7.4 at room temperature to remove any excess unbound synthetic peptide.
The immobilised phospho-peptide product of the reaction was detected by immunological methods.
Kinase inhibition for a given compound was expressed as an IC50 value. […] The range of phosphorylation was calculated from the positive (vehicle plus ATP) and negative (vehicle minus ATP) control values.

The target of the next experiment is T2, Tie2 receptor (Homo sapiens, UniProt Q02763).
T2 construct: one can use natural cell lines or primary cells which are known to express the receptor of choice; endogenous in cells; host or cells: EA.hy926/B3 cells
T2 sequence (Q02763 23-1124): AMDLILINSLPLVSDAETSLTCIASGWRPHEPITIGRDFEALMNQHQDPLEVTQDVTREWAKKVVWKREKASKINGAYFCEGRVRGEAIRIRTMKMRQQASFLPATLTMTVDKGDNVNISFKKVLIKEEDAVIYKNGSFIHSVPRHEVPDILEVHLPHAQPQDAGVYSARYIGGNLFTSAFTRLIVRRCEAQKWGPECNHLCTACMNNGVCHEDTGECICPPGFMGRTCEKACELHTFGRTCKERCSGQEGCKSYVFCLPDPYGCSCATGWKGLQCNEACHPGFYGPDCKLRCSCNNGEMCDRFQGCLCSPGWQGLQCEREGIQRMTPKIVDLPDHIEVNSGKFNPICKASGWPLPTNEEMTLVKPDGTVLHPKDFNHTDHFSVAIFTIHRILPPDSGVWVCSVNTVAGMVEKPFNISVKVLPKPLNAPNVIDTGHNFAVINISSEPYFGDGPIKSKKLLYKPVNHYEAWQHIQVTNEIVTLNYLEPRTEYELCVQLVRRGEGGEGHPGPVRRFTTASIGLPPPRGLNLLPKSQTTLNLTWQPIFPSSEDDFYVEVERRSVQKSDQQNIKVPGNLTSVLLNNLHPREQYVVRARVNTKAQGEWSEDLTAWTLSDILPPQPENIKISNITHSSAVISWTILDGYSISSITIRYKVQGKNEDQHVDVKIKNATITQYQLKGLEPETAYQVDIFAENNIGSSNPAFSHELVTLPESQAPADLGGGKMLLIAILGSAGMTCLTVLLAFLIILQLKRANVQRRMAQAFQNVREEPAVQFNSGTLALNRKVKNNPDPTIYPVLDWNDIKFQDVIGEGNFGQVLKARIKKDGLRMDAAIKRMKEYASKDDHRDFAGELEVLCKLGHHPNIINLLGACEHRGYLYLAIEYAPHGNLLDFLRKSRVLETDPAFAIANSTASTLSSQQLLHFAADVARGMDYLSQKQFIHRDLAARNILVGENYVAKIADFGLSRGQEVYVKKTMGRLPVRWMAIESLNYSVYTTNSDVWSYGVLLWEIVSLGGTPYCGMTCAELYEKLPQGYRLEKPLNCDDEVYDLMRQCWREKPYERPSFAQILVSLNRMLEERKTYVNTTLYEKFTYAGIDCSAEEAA
Briefly: Cellular Tie2 autophosphorylation assay (Ang1 ligand stimulated). The experiment is classed as cell-based.

[2] abbreviates: whole cells, for example EA.hy926/B3, Ang1 ligand stimulated, read-out: IC50 (μM) Test (b): Inhibition of autophosphorylation of Tie2 receptor tyrosine kinase.

SMILES strings stand for the structures. Where two headings read alike, the source gives them in different places.

As for `Nc1ncnc(N)c1C#Cc1cccc(NS(=O)(=O)c2ccccc2Cl)c1` [Example 1, 2-chloro-N-{3-[(4,6-diaminopyrimidin-5-yl)ethynyl]phenyl}benzenesulfonamide], the IC50 was found to be 7.5 µM in experiment [1] and 0.78 µM at Tie2 receptor (setting [2]).

As for `Nc1ncnc(N)c1C#Cc1cccc(NS(=O)(=O)c2cccc(Cl)c2Cl)c1` [Example 3, 2,3-dichloro-N-{3-[(4,6-diaminopyrimidin-5-yl)ethynyl]phenyl}benzenesulfonamide], the IC50 was 3.7 µM in experiment [1] and 0.29 µM against Tie2 receptor.

In the case of `Nc1ncnc(N)c1C#Cc1cccc(NS(=O)(=O)c2cc(F)ccc2F)c1` [Example 6, N-{3-[(4,6-diaminopyrimidin-5-yl)ethynyl]phenyl}-2,5-difluorobenzenesulfonamide], the IC50 was 0.4 µM in experiment [1] and 0.34 µM on Tie2 receptor (setting [2]).

Usually IC50 stands for the concentration needed to halve the response being measured.
